Experimental findings from US20250304620A1, “ANTIMICROBIAL PEPTIDE AND APPLICATION THEREOF” (priority 2023, published 2025) are described below.

In brackets after ≈: the same amount, converted by molar mass. Marks after values point to notes of the source that are not given here. Non-standard residues stand in square brackets, D forms with d. Residues, ends and D or L forms follow the SMILES beside them. d2Nal = N[C@H](Cc1ccc2ccccc2c1)C(=O)O; d(hLeu) = CC(C)CC[C@@H](N)C(=O)O; dNle = CCCC[C@@H](N)C(=O)O; dNva = CCC[C@@H](N)C(=O)O

Series [1] has as its system Staphylococcus aureus (NRS 384). Nature of the series: microbe, parasite or virus in culture. Conditions: NRS 384. The format is cell-based. The procedure, abridged: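 MICs were read against S. aureus strain NRS 384 using twofold serial dilution by CLSI microdilution rules. Levofloxacin and Cbf-K16 were the reference controls, and the test was repeated 5 times in parallel.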

Series [2] relates to Shigella flexneri ATCC 12022. Nature of the series: MIC against clinically common bacterial strain. The class given is cell-based. An excerpt: According to the Standards of Clinical and Laboratory Standards Institute (CLSI) of the USA for antimicrobial drug susceptibility test operation standards, the micronutrient serial twofold dilution method was used further determine MICs of 30 AMPs (S/N: LV-1 to LV-30) 10 clinically common sensitive strains and 6 fungi in clinical practice. The experiment was repeated 5 times in parallel.

In series [3] the test system is rabbit red blood cells. The class given is cell-based. The note with it: red cells of rabbit, 1 h.
Series [4] deals with Escherichia coli ATCC 25922. Put plainly: Oral formulations on mice with systemic bacterial infection. The note with it: three times a day for 7 days; for Number of mice that died on each day after infection: day 4 / Number of mice that died on each day after infection: day 5 / Number of mice that died on each day after infection: day 6 / Number of mice that died on each day after infection: day 7 / Number of mice that died on each day after infection: day 8 / Average survival times (Days): n = 10; for Average survival times (Days): observed for 14 d; for survival time of mice infected with Escherichia coli: gavage, observed 14 d. The class given is in vivo, ICR mice. Put shortly:
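Survival time and deaths were logged over a 14 d observation after oral gavage dosing (by body weight, thrice daily, 7 days, starting right after infection). Model: mixed-sex ICR mice, n=10 per group, intraperitoneal injection of E. coli ATCC 25922 suspension (0.2 mL, 1×10^7 CFU/mL).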

As to `CCCC[C@@H](NC(=O)[C@@H](CCCCN)NC(=O)[C@@H](CCCNC(=N)N)NC(C)=O)C(=O)N[C@H](CCCC)C(=O)N[C@H](Cc1ccc2ccccc2c1)C(=O)N[C@H](CCCNC(=N)N)C(=O)N[C@H](CCCC)C(=O)N[C@H](CCCCN)C(=O)N[C@H](Cc1ccc2ccccc2c1)C(=O)N[C@H](CCCNC(=N)N)C(=O)N[C@H](CCCCN)C(N)=O` [LV-12] (Ac-[dR][dK][dNle][dNle][d2Nal][dR][dNle][dK][d2Nal][dR][dK]-NH2), the “MIC against Staphylococcus aureus (NRS 384)” value (from here on “MIC … (NRS 384)”) in series [1] was found to be 1 µg/mL (≈ 0.607 µM). For the same compound, the “MIC Shigella flexneri ATCC 12022” value in series [2] is 4 µg/mL (≈ 2.43 µM). The “MHC (minimum hemolytic concentration, lowest concentration causing 10% hemolysis)” value in series [3] is >1000 µg/mL. Moreover, in series [4] (0.2 mg/kg gavage), the “Number of mice that died on each day after infection: day 4” value (“Number of mice that died … day 4” for short) is listed as 1 Mouse, the “Number of mice that died on each day after infection: day 5” value (shortened to “Number of mice that died … day 5”) is given as 2 Mouse, the “Number of mice that died on each day after infection: day 6” value (“Number of mice that died … day 6” below) was 2 Mouse and the “Number of mice that died on each day after infection: day 7” value (from here on “Number of mice that died … day 7”) came to 1 Mouse. Moreover, in series [4] (0.2 mg/kg gavage), the “Number of mice that died on each day after infection: day 8” value (shortened to “Number of mice that died … day 8”) came to 0 Mouse and the “Average survival times (Days)” value is 8.9** Days. In series [4] (1 mg/kg gavage), the “Number of mice that died … day 4” value came to 0 Mouse, the “Number of mice that died … day 5” value came out at 1 Mouse, the “Number of mice that died … day 6” value turned out to be 0 Mouse and the “Number of mice that died … day 7” value is recorded as 2 Mouse. For the same compound, in series [4] (1 mg/kg gavage), the “Number of mice that died … day 8” value was 1 Mouse and the “Average survival times (Days)” value was 11.1**** Days. In series [4] (5 mg/kg gavage), the “Number of mice that died … day 4” value was 0 Mouse, the “Number of mice that died … day 5” value stood at 2 Mouse, the “Number of mice that died … day 6” value was 1 Mouse and the “Number of mice that died … day 7” value amounted to 1 Mouse. In series [4] (5 mg/kg gavage), the “Number of mice that died … day 8” value is 0 Mouse and the “Average survival times (Days)” value is listed as 10.7*** Days. Besides, the “survival time of mice infected with Escherichia coli” value in series [4] is “superior to those of the Levofloxacin group”.
For the compound `CCC[C@@H](NC(=O)[C@@H](CCCCN)NC(=O)[C@@H](CCCNC(=N)N)NC(C)=O)C(=O)N[C@H](CCC)C(=O)N[C@H](Cc1ccc2ccccc2c1)C(=O)N[C@H](CCCNC(=N)N)C(=O)N[C@H](CCC)C(=O)N[C@H](CCCCN)C(=O)N[C@H](Cc1ccc2ccccc2c1)C(=O)N[C@H](CCCNC(=N)N)C(=O)N[C@H](CCCCN)C(N)=O` [LV-13] (Ac-[dR][dK][dNva][dNva][d2Nal][dR][dNva][dK][d2Nal][dR][dK]-NH2), the “MIC … (NRS 384)” value in series [1] worked out at 1 µg/mL (≈ 0.623 µM). Further, the “MIC Shigella flexneri ATCC 12022” value in series [2] came out at 8 µg/mL (≈ 4.99 µM). Besides, in series [3], the “MHC (minimum hemolytic concentration, lowest concentration causing 10% hemolysis)” value is >1000 µg/mL. For the same compound, in series [4] (1 mg/kg gavage), the “Number of mice that died … day 4” value came to 3 Mouse, the “Number of mice that died … day 5” value stood at 1 Mouse, the “Number of mice that died … day 6” value was determined as 1 Mouse and the “Number of mice that died … day 7” value is recorded as 0 Mouse. In addition, in series [4] (1 mg/kg gavage), the “Number of mice that died … day 8” value is on record as 0 Mouse and the “Average survival times (Days)” value is given as 9.3** Days.
On to `CC(=O)N[C@H](CCCNC(=N)N)C(=O)N[C@H](CCCCN)C(=O)N[C@H](CCC(C)C)C(=O)N[C@H](CCC(C)C)C(=O)N[C@H](Cc1ccc2ccccc2c1)C(=O)N[C@H](CCCNC(=N)N)C(=O)N[C@H](CCC(C)C)C(=O)N[C@H](CCCCN)C(=O)N[C@H](Cc1ccc2ccccc2c1)C(=O)N[C@H](CCCNC(=N)N)C(=O)N[C@H](CCCCN)C(N)=O` [LV-14] (Ac-[dR][dK][d(hLeu)][d(hLeu)][d2Nal][dR][d(hLeu)][dK][d2Nal][dR][dK]-NH2), for which, in series [1], the “MIC … (NRS 384)” value stood at 1 µg/mL (≈ 0.592 µM). For the same compound, the “MIC Shigella flexneri ATCC 12022” value in series [2] is 4 µg/mL (≈ 2.37 µM). Besides, the “MHC (minimum hemolytic concentration, lowest concentration causing 10% hemolysis)” value in series [3] was >1000 µg/mL. In series [4] (1 mg/kg gavage), the “Number of mice that died … day 4” value is 1 Mouse, the “Number of mice that died … day 5” value came to 2 Mouse, the “Number of mice that died … day 6” value is listed as 1 Mouse and the “Number of mice that died … day 7” value turned out to be 0 Mouse. In addition, in series [4] (1 mg/kg gavage), the “Number of mice that died … day 8” value is 1 Mouse and the “Average survival times (Days)” value was 9.8** Days.
For the compound `CC(=O)N[C@H](CCCNC(=N)N)C(=O)N[C@H](CCCCN)C(=O)N[C@H](C)C(=O)N[C@H](C)C(=O)N[C@H](Cc1ccc2ccccc2c1)C(=O)N[C@H](CCCNC(=N)N)C(=O)N[C@H](C)C(=O)N[C@H](CCCCN)C(=O)N[C@H](Cc1ccc2ccccc2c1)C(=O)N[C@H](CCCNC(=N)N)C(=O)N[C@H](CCCCN)C(N)=O` [LV-15] (Ac-[dR][dK][dA][dA][d2Nal][dR][dA][dK][d2Nal][dR][dK]-NH2), the “MIC … (NRS 384)” value in series [1] turned out to be 1 µg/mL (≈ 0.658 µM). For the same compound, in series [2], the “MIC Shigella flexneri ATCC 12022” value was determined as 2 µg/mL (≈ 1.32 µM). Also, the “MHC (minimum hemolytic concentration, lowest concentration causing 10% hemolysis)” value in series [3] was >1000 µg/mL. In addition, in series [4] (1 mg/kg gavage), the “Number of mice that died … day 4” value was determined as 1 Mouse, the “Number of mice that died … day 5” value stood at 3 Mouse, the “Number of mice that died … day 6” value is reported as 0 Mouse and the “Number of mice that died … day 7” value was found to be 1 Mouse. In series [4] (1 mg/kg gavage), the “Number of mice that died … day 8” value is 0 Mouse and the “Average survival times (Days)” value was 9.6** Days.
Regarding `CC(=O)N[C@H](CCCNC(=N)N)C(=O)N[C@H](CCCCN)C(=O)N[C@@H](C(=O)N[C@@H](C(=O)N[C@H](Cc1ccc2ccccc2c1)C(=O)N[C@H](CCCNC(=N)N)C(=O)N[C@@H](C(=O)N[C@H](CCCCN)C(=O)N[C@H](Cc1ccc2ccccc2c1)C(=O)N[C@H](CCCNC(=N)N)C(=O)N[C@H](CCCCN)C(N)=O)C(C)C)C(C)C)C(C)C` [LV-16] (Ac-[dR][dK][dV][dV][d2Nal][dR][dV][dK][d2Nal][dR][dK]-NH2), in series [1], the “MIC … (NRS 384)” value was 1 µg/mL (≈ 0.623 µM). Moreover, in series [2], the “MIC Shigella flexneri ATCC 12022” value was 2 µg/mL (≈ 1.25 µM). Moreover, the “MHC (minimum hemolytic concentration, lowest concentration causing 10% hemolysis)” value in series [3] is >1000 µg/mL. In series [4] (1 mg/kg gavage), the “Number of mice that died … day 4” value is given as 1 Mouse, the “Number of mice that died … day 5” value amounted to 1 Mouse, the “Number of mice that died … day 6” value was determined as 1 Mouse and the “Number of mice that died … day 7” value was determined as 0 Mouse. In addition, in series [4] (1 mg/kg gavage), the “Number of mice that died … day 8” value is given as 2 Mouse and the “Average survival times (Days)” value is listed as 10.1*** Days.
Regarding `CC(=O)N[C@H](CCCCN)C(=O)N[C@H](CCCCN)C(=O)N[C@H](CC(C)C)C(=O)N[C@H](CC(C)C)C(=O)N[C@H](Cc1ccc2ccccc2c1)C(=O)N[C@H](CCCCN)C(=O)N[C@H](CC(C)C)C(=O)N[C@H](CCCCN)C(=O)N[C@H](Cc1ccc2ccccc2c1)C(=O)N[C@H](CCCCN)C(=O)N[C@H](CCCCN)C(N)=O` [LV-17] (Ac-[dK][dK][dL][dL][d2Nal][dK][dL][dK][d2Nal][dK][dK]-NH2), the “MIC … (NRS 384)” value in series [1] came out at 1 µg/mL (≈ 0.64 µM). Besides, the “MIC Shigella flexneri ATCC 12022” value in series [2] is 4 µg/mL (≈ 2.56 µM). Further, the “MHC (minimum hemolytic concentration, lowest concentration causing 10% hemolysis)” value in series [3] was >1000 µg/mL. Moreover, in series [4] (0.2 mg/kg gavage), the “Number of mice that died … day 4” value is 1 Mouse, the “Number of mice that died … day 5” value was 2 Mouse, the “Number of mice that died … day 6” value is recorded as 1 Mouse and the “Number of mice that died … day 7” value is given as 1 Mouse. In addition, in series [4] (0.2 mg/kg gavage), the “Number of mice that died … day 8” value is listed as 2 Mouse and the “Average survival times (Days)” value is recorded as 8.5** Days. Moreover, in series [4] (1 mg/kg gavage), the “Number of mice that died … day 4” value stood at 1 Mouse, the “Number of mice that died … day 5” value was 0 Mouse, the “Number of mice that died … day 6” value was 2 Mouse and the “Number of mice that died … day 7” value was found to be 1 Mouse. In series [4] (1 mg/kg gavage), the “Number of mice that died … day 8” value is 0 Mouse and the “Average survival times (Days)” value is 10.7*** Days. Also, in series [4] (5 mg/kg gavage), the “Number of mice that died … day 4” value is on record as 2 Mouse, the “Number of mice that died … day 5” value was found to be 1 Mouse, the “Number of mice that died … day 6” value is 0 Mouse and the “Number of mice that died … day 7” value is recorded as 1 Mouse. Moreover, in series [4] (5 mg/kg gavage), the “Number of mice that died … day 8” value is reported as 1 Mouse and the “Average survival times (Days)” value is 9.8** Days. For the same compound, in series [4], the “survival time of mice infected with Escherichia coli” value is “superior to those of the Levofloxacin group”.
